{
  "source": "patent US8192962B2",
  "about": "“Processes for detecting toxic substances” (Daikin Industries, Ltd., priority 2001, dated 2012)",
  "system": "Transport facilitation protein genes",
  "assay": "DNA chip mRNA expression in yeast, transport facilitation protein genes (Table 5)",
  "type": "cell-based, Saccharomyces cerevisiae S288C",
  "method_in_brief": "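Measured as treated-to-untreated fluorescence ratio on a full-genome yeast DNA chip. Cells (S288C, YPD, 25° C.) were exposed in log phase for two hours to one chemical, dosed to curb growth without killing.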",
  "data": [
    {"compound": "[Cl][Hg][Cl]", "note": "[(3), HgCl2]", "values": [
      {"measurement": "The level of expressed mRNA in the presence of chemical substance/The level of expressed mRNA in the absence of chemical substance", "setting": "yeast gene YGR224W", "value": 1.2},
      {"measurement": "The level of expressed mRNA in the presence of chemical substance/The level of expressed mRNA in the absence of chemical substance", "setting": "yeast gene YGR260W", "value": 3.4},
      {"measurement": "The level of expressed mRNA in the presence of chemical substance/The level of expressed mRNA in the absence of chemical substance", "setting": "yeast gene YGR281W", "value": 1.3},
      {"measurement": "The level of expressed mRNA in the presence of chemical substance/The level of expressed mRNA in the absence of chemical substance", "setting": "yeast gene YHL035C", "value": 0.9},
      {"measurement": "The level of expressed mRNA in the presence of chemical substance/The level of expressed mRNA in the absence of chemical substance", "setting": "yeast gene YHL040C", "value": 1.5},
      {"measurement": "The level of expressed mRNA in the presence of chemical substance/The level of expressed mRNA in the absence of chemical substance", "setting": "yeast gene YHL047C", "value": 1.0},
      {"measurement": "The level of expressed mRNA in the presence of chemical substance/The level of expressed mRNA in the absence of chemical substance", "setting": "yeast gene YHR026W", "value": 1.9},
      {"measurement": "The level of expressed mRNA in the presence of chemical substance/The level of expressed mRNA in the absence of chemical substance", "setting": "yeast gene YHR092C", "value": 7.5},
      {"measurement": "The level of expressed mRNA in the presence of chemical substance/The level of expressed mRNA in the absence of chemical substance", "setting": "yeast gene YHR094C", "value": 5.3},
      {"measurement": "The level of expressed mRNA in the presence of chemical substance/The level of expressed mRNA in the absence of chemical substance", "setting": "yeast gene YHR175W", "value": 2.4},
      {"measurement": "The level of expressed mRNA in the presence of chemical substance/The level of expressed mRNA in the absence of chemical substance", "setting": "yeast gene YIL006W", "value": 1.4},
      {"measurement": "The level of expressed mRNA in the presence of chemical substance/The level of expressed mRNA in the absence of chemical substance", "setting": "yeast gene YIL022W", "value": 1.1},
      {"measurement": "The level of expressed mRNA in the presence of chemical substance/The level of expressed mRNA in the absence of chemical substance", "setting": "yeast gene YIL056W", "value": 6.2},
      {"measurement": "The level of expressed mRNA in the presence of chemical substance/The level of expressed mRNA in the absence of chemical substance", "setting": "yeast gene YIL088C", "value": 2.1},
      {"measurement": "The level of expressed mRNA in the presence of chemical substance/The level of expressed mRNA in the absence of chemical substance", "setting": "yeast gene YJL034W", "value": 3.0},
      {"measurement": "The level of expressed mRNA in the presence of chemical substance/The level of expressed mRNA in the absence of chemical substance", "setting": "yeast gene YJL212C", "value": 3.1},
      {"measurement": "The level of expressed mRNA in the presence of chemical substance/The level of expressed mRNA in the absence of chemical substance", "setting": "yeast gene YJL219W", "value": 3.1},
      {"measurement": "The level of expressed mRNA in the presence of chemical substance/The level of expressed mRNA in the absence of chemical substance", "setting": "yeast gene YJR077C", "value": 2.0},
      {"measurement": "The level of expressed mRNA in the presence of chemical substance/The level of expressed mRNA in the absence of chemical substance", "setting": "yeast gene YJR106W", "value": 1.5},
      {"measurement": "The level of expressed mRNA in the presence of chemical substance/The level of expressed mRNA in the absence of chemical substance", "setting": "yeast gene YJR121W", "value": 3.3},
      {"measurement": "The level of expressed mRNA in the presence of chemical substance/The level of expressed mRNA in the absence of chemical substance", "setting": "yeast gene YKL016C", "value": 0.7},
      {"measurement": "The level of expressed mRNA in the presence of chemical substance/The level of expressed mRNA in the absence of chemical substance", "setting": "yeast gene YKL146W", "value": 1.3},
      {"measurement": "The level of expressed mRNA in the presence of chemical substance/The level of expressed mRNA in the absence of chemical substance", "setting": "yeast gene YKR039W", "value": 1.3},
      {"measurement": "The level of expressed mRNA in the presence of chemical substance/The level of expressed mRNA in the absence of chemical substance", "setting": "yeast gene YKR067W", "value": 1.5},
      {"measurement": "The level of expressed mRNA in the presence of chemical substance/The level of expressed mRNA in the absence of chemical substance", "setting": "yeast gene YLL028W", "value": 4.6},
      {"measurement": "The level of expressed mRNA in the presence of chemical substance/The level of expressed mRNA in the absence of chemical substance", "setting": "yeast gene YLR081W", "value": 2.8},
      {"measurement": "The level of expressed mRNA in the presence of chemical substance/The level of expressed mRNA in the absence of chemical substance", "setting": "yeast gene YLR295C", "value": 1.1},
      {"measurement": "The level of expressed mRNA in the presence of chemical substance/The level of expressed mRNA in the absence of chemical substance", "setting": "yeast gene YLR348C", "value": 1.2},
      {"measurement": "The level of expressed mRNA in the presence of chemical substance/The level of expressed mRNA in the absence of chemical substance", "setting": "yeast gene YLR378C", "value": 2.6},
      {"measurement": "The level of expressed mRNA in the presence of chemical substance/The level of expressed mRNA in the absence of chemical substance", "setting": "yeast gene YMR011W", "value": 9.4},
      {"measurement": "The level of expressed mRNA in the presence of chemical substance/The level of expressed mRNA in the absence of chemical substance", "setting": "yeast gene YMR162C", "value": 1.1},
      {"measurement": "The level of expressed mRNA in the presence of chemical substance/The level of expressed mRNA in the absence of chemical substance", "setting": "yeast gene YMR203W", "value": 3.0},
      {"measurement": "The level of expressed mRNA in the presence of chemical substance/The level of expressed mRNA in the absence of chemical substance", "setting": "yeast gene YNL055C", "value": 5.5},
      {"measurement": "The level of expressed mRNA in the presence of chemical substance/The level of expressed mRNA in the absence of chemical substance", "setting": "yeast gene YNL259C", "value": 1.1},
      {"measurement": "The level of expressed mRNA in the presence of chemical substance/The level of expressed mRNA in the absence of chemical substance", "setting": "yeast gene YNR072W", "value": 0.5},
      {"measurement": "The level of expressed mRNA in the presence of chemical substance/The level of expressed mRNA in the absence of chemical substance", "setting": "yeast gene YOL119C", "value": 1.5},
      {"measurement": "The level of expressed mRNA in the presence of chemical substance/The level of expressed mRNA in the absence of chemical substance", "setting": "yeast gene YOL156W", "value": 2.5},
      {"measurement": "The level of expressed mRNA in the presence of chemical substance/The level of expressed mRNA in the absence of chemical substance", "setting": "yeast gene YOL163W", "value": 2.1},
      {"measurement": "The level of expressed mRNA in the presence of chemical substance/The level of expressed mRNA in the absence of chemical substance", "setting": "yeast gene YOR035C", "value": 0.3},
      {"measurement": "The level of expressed mRNA in the presence of chemical substance/The level of expressed mRNA in the absence of chemical substance", "setting": "yeast gene YOR130C", "value": 1.4},
      {"measurement": "The level of expressed mRNA in the presence of chemical substance/The level of expressed mRNA in the absence of chemical substance", "setting": "yeast gene YOR153W", "value": 5.1},
      {"measurement": "The level of expressed mRNA in the presence of chemical substance/The level of expressed mRNA in the absence of chemical substance", "setting": "yeast gene YOR273C", "value": 1.7},
      {"measurement": "The level of expressed mRNA in the presence of chemical substance/The level of expressed mRNA in the absence of chemical substance", "setting": "yeast gene YOR316C", "value": 1.5},
      {"measurement": "The level of expressed mRNA in the presence of chemical substance/The level of expressed mRNA in the absence of chemical substance", "setting": "yeast gene YOR332W", "value": 1.0},
      {"measurement": "The level of expressed mRNA in the presence of chemical substance/The level of expressed mRNA in the absence of chemical substance", "setting": "yeast gene YOR348C", "value": 1.2},
      {"measurement": "The level of expressed mRNA in the presence of chemical substance/The level of expressed mRNA in the absence of chemical substance", "setting": "yeast gene YPL036W", "value": 2.8},
      {"measurement": "The level of expressed mRNA in the presence of chemical substance/The level of expressed mRNA in the absence of chemical substance", "setting": "yeast gene YPL134C", "value": 1.6},
      {"measurement": "The level of expressed mRNA in the presence of chemical substance/The level of expressed mRNA in the absence of chemical substance", "setting": "yeast gene YPL271W", "value": 4.1},
      {"measurement": "The level of expressed mRNA in the presence of chemical substance/The level of expressed mRNA in the absence of chemical substance", "setting": "yeast gene YPR192W", "value": 0.9},
      {"measurement": "The level of expressed mRNA in the presence of chemical substance/The level of expressed mRNA in the absence of chemical substance", "setting": "yeast gene YPR194C", "value": 0.5}
    ]}
  ]
}
